Reference: ChEMBL document CHEMBL1201862, “PubChem BioAssay data set” (2004)
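Five concentrations, 48 hours, 96-well plates. GI50 is the concentration that inhibits growth by half.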 Active and inactive are the calls of the source. No stated cut-off is given here; in the data, active = GI50 up to about 1.1 µM and inactive = higher.

How the values were obtained:
Assay in all cases: NCI tumour cell line growth inhibition, 48 h
KM-20L2 = system: KM-20L2
UO-31 = system: UO-31
M14 = system: M14
UACC-62 = system: UACC-62
HCT-15 = system: HCT-15
Malme-3M = system: Malme-3M
EKVX = system: EKVX
SF-268 = system: SF-268
SW-620 = system: SW-620
HCT-116 = system: HCT-116
RXF 393 = system: RXF 393
OVCAR-5 = system: OVCAR-5
CCRF-CEM = system: CCRF-CEM
A549 = system: A549
HCC 2998 = system: HCC 2998
HT-29 = system: HT-29
HOP-62 = system: HOP-62
UACC-257 = system: UACC-257
LOX IMVI = system: LOX IMVI
NCI/ADR-RES = system: NCI/ADR-RES

SMILES	GI50 (KM-20L2)	GI50 (UO-31)	GI50 (M14)	GI50 (UACC-62)	GI50 (HCT-15) [µM]	GI50 (Malme-3M)	GI50 (EKVX)	GI50 (SF-268)	GI50 (SW-620)	GI50 (HCT-116)	GI50 (RXF 393)	GI50 (OVCAR-5)	GI50 (CCRF-CEM)	GI50 (A549)	GI50 (HCC 2998)	GI50 (HT-29)	GI50 (HOP-62)	GI50 (UACC-257)	GI50 (LOX IMVI)	GI50 (NCI/ADR-RES)
COc1ccc(C(O)C(c2ccc(OCc3ccccc3)cc2)c2ccc(OCc3ccccc3)cc2)cc1 (centres undefined)	> 100 µM (inactive)	> 100 µM (inactive)	> 100 µM (inactive)	> 100 µM (inactive)	> 100	> 100 µM (inactive)	> 100 µM (inactive)	> 100 µM (inactive)	> 100 µM (inactive)	> 100 µM (inactive)	> 100 µM (inactive)	> 100 µM (inactive)	> 100 µM (inactive)	> 100 µM (inactive)	> 100 µM (inactive)	> 100 µM (inactive)	> 100 µM (inactive)			
Cc1cccc(C(C)(C)C)c1NC(=O)CC1C(=O)Nc2ccccc2[S+]1[O-] (centres undefined)	57.5 µM (inactive)	41.6 µM (inactive)	43.6 µM (inactive)		49.2	54 µM (inactive)		> 100 µM (inactive)	36.7 µM (inactive)	40.6 µM (inactive)		> 100 µM (inactive)		37 µM (inactive)	68.1 µM (inactive)	65 µM (inactive)	> 100 µM (inactive)	61.9 µM (inactive)	55.7 µM (inactive)	
CN1c2ccccc2NC(CC(=O)O)C2CC=CN21 (centres undefined)	> 100 µM (inactive)	> 100 µM (inactive)	> 100 µM (inactive)	> 100 µM (inactive)	> 100	> 100 µM (inactive)	> 100 µM (inactive)	> 100 µM (inactive)	> 100 µM (inactive)		> 100 µM (inactive)	> 100 µM (inactive)	> 100 µM (inactive)	> 100 µM (inactive)		> 100 µM (inactive)	> 100 µM (inactive)	> 100 µM (inactive)	> 100 µM (inactive)	
N=C(c1ccccc1)N(O)C1CCCCC1	> 100 µM (inactive)	> 100 µM (inactive)	> 100 µM (inactive)			9.38 µM (inactive)	> 100 µM (inactive)	> 100 µM (inactive)	> 100 µM (inactive)	> 100 µM (inactive)	> 100 µM (inactive)	> 100 µM (inactive)		> 100 µM (inactive)	> 100 µM (inactive)	> 100 µM (inactive)	> 100 µM (inactive)	> 100 µM (inactive)	> 100 µM (inactive)	
CN1CC2(CCCCC2)C(O)C12C=CCCC2 (centres undefined)	> 100 µM (inactive)	> 100 µM (inactive)	> 100 µM (inactive)	> 100 µM (inactive)	> 100	> 100 µM (inactive)	> 100 µM (inactive)	> 100 µM (inactive)	> 100 µM (inactive)		> 100 µM (inactive)		> 100 µM (inactive)	> 100 µM (inactive)	> 100 µM (inactive)	> 100 µM (inactive)	> 100 µM (inactive)	> 100 µM (inactive)	> 100 µM (inactive)	
[N-]=[N+]=Nc1ccccc1-[n+]1noc([O-])c1Br	> 100 µM (inactive)	> 100 µM (inactive)	> 100 µM (inactive)	> 100 µM (inactive)	> 100	> 100 µM (inactive)	> 100 µM (inactive)	> 100 µM (inactive)	> 100 µM (inactive)	> 100 µM (inactive)	> 100 µM (inactive)		> 100 µM (inactive)	> 100 µM (inactive)		> 100 µM (inactive)	> 100 µM (inactive)	> 100 µM (inactive)		
CN(/N=C\c1ccnc2ccccc12)c1ccc([N+](=O)[O-])cc1	> 100 µM (inactive)		97.1 µM (inactive)	84.7 µM (inactive)	> 100	> 100 µM (inactive)	> 100 µM (inactive)	9.51 µM (inactive)	65 µM (inactive)	11.6 µM (inactive)	> 10 µM (inactive)	> 100 µM (inactive)	19.5 µM (inactive)	> 100 µM (inactive)	> 100 µM (inactive)	> 100 µM (inactive)	> 100 µM (inactive)	> 100 µM (inactive)	8.2 µM (inactive)	
O=C(CC(=O)N1N=C(c2ccccc2)C(/N=N/c2ccc(C(=O)O)cc2)C1=O)Nc1ccc(F)cc1 (centres undefined)	46.5 µM (inactive)	29.6 µM (inactive)	38.8 µM (inactive)	20.5 µM (inactive)	18	60.7 µM (inactive)	30.1 µM (inactive)	15.9 µM (inactive)	59.3 µM (inactive)	12.2 µM (inactive)	4.01 µM (inactive)	52.1 µM (inactive)		39.2 µM (inactive)		48.9 µM (inactive)		58.9 µM (inactive)	12.4 µM (inactive)	
O=[N+]([O-])C=C1c2ccccc2-c2ccccc21	19.1 µM (inactive)	15.2 µM (inactive)	12.7 µM (inactive)		19.1		20.4 µM (inactive)	19.9 µM (inactive)	16.4 µM (inactive)	4.75 µM (inactive)	17.5 µM (inactive)	17.4 µM (inactive)	4.91 µM (inactive)	19.9 µM (inactive)	16.8 µM (inactive)	20 µM (inactive)	17.5 µM (inactive)	19.1 µM (inactive)	16.6 µM (inactive)	
O=[N+]([O-])c1nccn1COCCO	> 100 µM (inactive)		> 100 µM (inactive)		> 100	> 100 µM (inactive)		> 100 µM (inactive)	> 100 µM (inactive)	> 100 µM (inactive)	> 100 µM (inactive)	> 100 µM (inactive)	> 100 µM (inactive)	> 100 µM (inactive)	> 100 µM (inactive)	> 100 µM (inactive)	> 100 µM (inactive)	> 100 µM (inactive)	> 100 µM (inactive)	
Oc1ncnc2c1nnn2CCCn1nnc2c(O)ncnc21	> 100 µM (inactive)	> 100 µM (inactive)	> 100 µM (inactive)	> 100 µM (inactive)	> 100		> 100 µM (inactive)	> 100 µM (inactive)	> 100 µM (inactive)	> 100 µM (inactive)	> 100 µM (inactive)	> 100 µM (inactive)	> 100 µM (inactive)	> 100 µM (inactive)	> 100 µM (inactive)	> 100 µM (inactive)	> 100 µM (inactive)	> 100 µM (inactive)	> 100 µM (inactive)	
CCC(C)CN1C(=O)NC(C)(Cc2ccccc2)C1=O (centres undefined)	> 100 µM (inactive)	> 100 µM (inactive)	> 100 µM (inactive)			> 100 µM (inactive)	> 100 µM (inactive)	> 100 µM (inactive)	> 100 µM (inactive)		> 100 µM (inactive)	> 100 µM (inactive)		> 100 µM (inactive)	> 100 µM (inactive)	> 100 µM (inactive)	> 100 µM (inactive)	> 100 µM (inactive)	> 100 µM (inactive)	
COc1ccc(Cc2cc3c(cc2OCC(=O)O)OCO3)cc1	> 100 µM (inactive)	> 100 µM (inactive)	> 100 µM (inactive)	> 100 µM (inactive)		> 100 µM (inactive)	> 100 µM (inactive)	> 100 µM (inactive)	> 100 µM (inactive)	> 100 µM (inactive)	> 100 µM (inactive)	> 100 µM (inactive)	> 100 µM (inactive)	> 100 µM (inactive)	> 100 µM (inactive)	> 100 µM (inactive)	> 100 µM (inactive)	> 100 µM (inactive)	> 100 µM (inactive)	
C/C=C1/CCC2c3[nH]c4ccccc4c3CCN2C1 (centres undefined)	97.1 µM (inactive)	> 100 µM (inactive)	14.4 µM (inactive)	60.8 µM (inactive)		0.256 µM (active)	> 100 µM (inactive)	> 100 µM (inactive)	> 100 µM (inactive)	66.5 µM (inactive)	> 100 µM (inactive)	> 100 µM (inactive)	> 100 µM (inactive)	> 100 µM (inactive)		45.7 µM (inactive)	> 100 µM (inactive)	64.9 µM (inactive)		
O=C(c1ccccc1)n1c(Cc2ccccc2)nc2cc(C34CC5CC(CC(C5)C3)C4)ccc21		35.2 µM (inactive)	43.4 µM (inactive)	48.6 µM (inactive)	18.2	29.3 µM (inactive)	81.8 µM (inactive)	> 100 µM (inactive)	80.7 µM (inactive)	44.3 µM (inactive)	27.4 µM (inactive)	56.8 µM (inactive)	50.5 µM (inactive)	37.7 µM (inactive)	77.3 µM (inactive)	43.6 µM (inactive)	56.4 µM (inactive)	53.1 µM (inactive)	30.5 µM (inactive)	31.8 µM (inactive)
Cc1cc(C2(c3cc(C)c(O)c4ncccc34)OC(=O)c3ccccc32)c2cccnc2c1O		0.00574 µM (active)	0.0625 µM (active)	0.0158 µM (active)	< 0.001	1 µM (active)	0.0203 µM (active)	0.0121 µM (active)	0.0304 µM (active)	0.00268 µM (active)	0.741 µM (active)	11.3 µM (inactive)	0.01 µM (active)	< 0.001 µM (active)	0.0468 µM (active)	0.0406 µM (active)	0.0217 µM (active)	2.77 µM (inactive)	0.00601 µM (active)	0.0344 µM (active)
O=C1Nc2ccc(Br)cc2/C1=N/S(=O)(=O)O		35 µM (inactive)	38.5 µM (inactive)	18.7 µM (inactive)	21.9	26.1 µM (inactive)	29.2 µM (inactive)	62.8 µM (inactive)	18.2 µM (inactive)	10.6 µM (inactive)	48.4 µM (inactive)	27.6 µM (inactive)	6.85 µM (inactive)	26.1 µM (inactive)	51.3 µM (inactive)	40.1 µM (inactive)	60.5 µM (inactive)	15.9 µM (inactive)	10 µM (inactive)	29.4 µM (inactive)
